Test results: paper PMC10283009, “Cellular photo(geno)toxicity of gefitinib after biotransformation” (Frontiers in Pharmacology, 2023)
“Also recorded” adds a separate entry of the source. Counter-ions that a name gives are not always drawn. Like-named read-outs stand apart in the source and are kept apart here.

What was measured:
HaCaT cells [1] = test: cells; conditions: for Phototoxicity classification according to OECD 432 Guide: PIF <2 no phototoxicity, 2-5 probable phototoxicity, >5 phototoxicity, HaCaT NRU
Procedure: Chlorpromazine (CPZ) and sodium dodecyl sulfate (SDS) served as the positive phototoxic and negative non-phototoxic controls, respectively. […] Therefore, the phototoxicity behavior of the metabolites was studied in parallel with the parent drug.
Concisely, for each compound, two 96-well plates were seeded at a density of 2.0 × 10^4 cells/well. […] All plates were incubated for 1 h in dark conditions. Then, for each sample, in the presence of ice, one plate was irradiated with a non-cytotoxic dose of 5 J/cm^2 UVA (UVA Light), whereas the other was kept in a dark box (Dark). Next, drug solutions were replaced with fresh DMEM medium, and plates were further incubated overnight. Next day, neutral red solution (50 μg/mL) was added into the wells and incubated for 2 h at 37°C. […] Lastly, the absorbance of the plates was read at 550 nm on a Synergy H1 microplate reader. […] Afterwards, photoirritation factor (PIF) values were calculated using the following equation: PIF=IC50 Dark / IC50 UVA Light

[2] = Fluorescence quantum yield of compounds internalized in HaCaT cells; format: physicochemical; conditions: inside HaCaT cells, excitation at 320 nm, anthracene as standard
Procedure: (§1) Absorption spectra were recorded in a JASCO V-760 spectrophotometer using 10 × 10 mm^2 quartz cuvettes at room temperature. […] Fluorescence spectra (λ exc = 320 nm) were recorded using a Synergy H1 multi-mode microplate reader.
In parallel, fluorescence quantum yield (ΦF) of the internalized compounds were also determined, by comparison with anthracene as standard (Φ F = 0.27 in ethanol). […]

[3] = target: T1, human serum albumin (HSA) (Homo sapiens, UniProt P02768); test: Photoinduced protein oxidation assay (carbonyl content, DNPH derivatization); conditions: compound 100 µM, HSA 5 mg/mL in PBS, UVA 15 J/cm^2
T1 sequence (P02768 25-609): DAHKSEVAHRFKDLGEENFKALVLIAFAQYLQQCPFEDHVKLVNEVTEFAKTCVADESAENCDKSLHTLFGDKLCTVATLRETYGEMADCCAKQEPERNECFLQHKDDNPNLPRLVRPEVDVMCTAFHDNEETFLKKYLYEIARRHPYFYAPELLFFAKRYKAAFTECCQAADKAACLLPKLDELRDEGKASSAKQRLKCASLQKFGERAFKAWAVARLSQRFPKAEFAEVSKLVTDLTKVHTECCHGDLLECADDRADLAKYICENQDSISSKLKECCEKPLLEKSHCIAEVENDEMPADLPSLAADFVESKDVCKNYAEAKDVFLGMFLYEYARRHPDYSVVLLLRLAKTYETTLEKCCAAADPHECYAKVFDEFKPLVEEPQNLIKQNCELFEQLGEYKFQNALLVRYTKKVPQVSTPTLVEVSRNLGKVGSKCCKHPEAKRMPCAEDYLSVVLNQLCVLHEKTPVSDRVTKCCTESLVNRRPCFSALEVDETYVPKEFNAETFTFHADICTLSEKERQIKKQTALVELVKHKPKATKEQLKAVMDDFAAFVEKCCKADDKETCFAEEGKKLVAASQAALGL

HaCaT cells [4] = test: Alkaline comet assay (nuclear DNA damage and repair); format: cell-based; conditions: 100 µM
Procedure: The comet assay (single-cell gel electrophoresis) was performed as already detailed in [Garcia-Lainez et al. (2018)] in order to detect both single and double strand breaks and alkaline labile sites on nuclear DNA. […] The reference photogenotoxic control of this assay was CPZ (10 μM). Afterwards, one plate was irradiated under 2 J/cm^2 UVA light dose (4 J/cm^2 for DMT-GFT and DMOR-GFT) while the other one was kept in darkness as the negative control. Later, both irradiated and non-irradiated cells were detached from the plates and 100 µL of cell suspension was mixed with 100 µL 1% low melting point agarose solution and loaded onto FLARE® slides. Then, slides were incubated on ice to allow drop jellification. Finally, slides were embedded in a box with lysis buffer to initiate the lysis of cells and incubated overnight at 4°C. Next day, slides were placed in electrophoresis tank filled with 1 L of cold alkaline electrophoresis buffer (0.2 M NaOH, 1 mM EDTA in distilled water and pH ≥ 13). The electrophoresis was run at 21 V (1 V/cm) for 30 min and kept at 4°C. Then, slides were washed twice with MilliQ water and DNA fixation accomplished by a serial dehydration with 70% ethanol and 100% ethanol solutions during 5 min and followed by drying for 2 h at 37°C. Nuclear DNA was stained with a SYBR Gold® bath (1:10,000 in Tris-EDTA buffer) for 30 min at 4°C and slides were kept in darkness until its visualization. Comets (nucleoids and tails) were visualized using a fluorescence microscope (Leica DMI 4000B). DNA damage was quantified by counting and analyzing at least 100 DNA comets. Finally, total comet score (TCS) was obtained with the classification of six DNA damage types ([Møller, 2006]) applying the formula: Cl. 0×0+Cl. 1×1+Cl. 2×2+Cl. 3×3+[Cl. 4×4+Cl. 5×5+Cl. 6×6]/6
Where Cl. is the class of DNA damage according to the visual scoring.
The results are expressed in 1–100 arbitrary units, where class 0 comets are comets with no DNA damage while class 6 comets represent comets with maximum DNA damage. Two-way ANOVA (Analysis of Variance) method was used for the statistical analysis of the data.

[5] = Fluorescence emission spectra in different media; format: physicochemical; design: unit not given here; conditions: excitation at 320 nm
Procedure: as §1

[6] = Singlet oxygen production by time-resolved NIR emission at 1,270 nm; format: physicochemical
[7] = system: caspase-3/7 activity in HaCaT cells; test: Caspase 3/7 activity assay (Apo-ONE); format: cell-based, human; conditions: after UVA 5 J/cm^2, two concentrations up to about the IC50 under UVA
Procedure: HaCaT cells were seeded in 96-well plates at a concentration of 2 × 10^5 cell/mL. The next day, cells, in fresh DMEM medium without phenol red, were treated with the compounds at two different concentrations representing 100% and 50% of cell viability according to NRU dose-response curves. After 1 h incubation at 37°C, one plate was irradiated with UVA light (5 J/cm^2) and the other one was kept in dark conditions. Later, plates were incubated for another 24 h at 37°C with fresh DMEM medium. Then, samples were analyzed by the Apo-ONE Homogeneous Caspase-3/7 assay according to the manufacturer’s instructions. Immediately after, the fluorescence was monitored at 0 h and 4 h after the addition of the substrate using Synergy H1 multi-mode microplate reader (excitation at 499 nm and emission at 521 nm). The data was subjected to statistical analysis using the Two-way ANOVA (Analysis of Variance).

[8] = Photosensitized lipid peroxidation (TBARS assay); conditions: compound 100 µM, linoleic acid 1 mM in PBS, UVA 15 J/cm^2 vs dark
[9] = Triplet excited-state quenching by DMBA (laser flash photolysis); format: physicochemical; conditions: deaerated acetonitrile, 355 nm laser excitation, DMBA 0.1-10 mM
Procedure: A pulsed Nd:YAG L52137 V LOTIS TII laser (Sp Lotis Tii, Minsk, Belarus) was used for the excitation at 355 nm. The single pulses were ∼10 ns of duration, and the energy was ∼12 mJ/pulse. Laser flash photolysis (LFP) equipment consisted of a pulsed laser, a 77250 Oriel monochromator, and an oscilloscope DP04054 Tektronix. The output signal from the oscilloscope was transferred to a personal computer for processing. The DMOR-GFT metabolite was dissolved in acetonitrile up to an absorbance of 0.3 at 355 nm. Solutions were deaerated by bubbling nitrogen through the solution during 15 min. The rate constant of triplet excited-state quenching by 1,4-dihydro-1,2-dimethylbenzoic acid (DMBA) was determined using the Stern–Volmer Equation: 1/τ=1/τq+kq DMBA
Where τ and τ q are the lifetime of transient species in the presence and absence of DMBA, respectively. Concentrations between 0.1 and 10 mM were used for DMBA. This compound was prepared through Birch reduction following standard procedures ([Andreu et al., 2011]).

HaCaT cells [10] = test: Lactate dehydrogenase release assay (CytoTox-ONE); format: cell-based, human; conditions: after UVA 5 J/cm^2, concentration near the IC50
Procedure: Lactate Dehydrogenase activity assay was performed according to the manufacturer´s protocol. Briefly, HaCaT cells were seeded in 96-well plates (2 × 10^5 cell/mL) and incubated for 24 h. Then, after replacement of the medium with fresh no-phenol red DMEM, cells were incubated for 1 h with the compounds in two different concentrations representing 100% and 50% of cell viability according to NRU dose-response curves. Next, one plate was irradiated with UVA light (5 J/cm^2) while the other one was kept in dark conditions. Next day, samples were analyzed by CytoTox-ONE™ Homogeneous Membrane Integrity Assay and a lysis solution (9% weight/volume solution of Triton X-100 in water) was used to determine the maximum amount of LDH present. The fluorescence was measured 10 min after the addition of the substrate using Synergy H1 multi-mode microplate reader (excitation at 560 nm and emission at 590 nm). The percent of LDH release was determined following the following equation: % LDH release=Experimental LDH release/Maximum LDH release x 100

[11] = target: T1, human serum albumin (HSA); design: purchased Sigma-Aldrich (Madrid, Spain); method as in Tamarit et al., 2021; conditions: GFT 100 µM, HSA 5 mg/mL in PBS, UVA 15 J/cm^2; carbonyl content value of GFT taken from the literature; ref Tamarit et al., 2021; cited from earlier work
[12] = design: method as in PMID 30069771; conditions: standard, in ethanol; ref [26]; cited from earlier work
[13] = Homo sapiens, HaCaT, 1 h, read-out: IC50 dark
[14] = Homo sapiens, HaCaT, light or radiation study, 1 h, read-out: IC50 UVA light
[15] = PIF = IC50 Dark / IC50 UVA Light, HaCaT, UVA 5 J/cm^2
[16] = in presence of calf thymus DNA (ctDNA)
[17] = in presence of methyl linoleate (ML)

CN(C)CCCN1c2ccccc2Sc2ccc(Cl)cc21 [CPZ, Chlorpromazine hydrochloride, reference compound]
IC50 (HaCaT cells [1]; [13]): 80 ± 17 µM | IC50 (HaCaT cells [1]; [14]): 4 ± 0.9 µM | Photoirritant factor (PIF) (HaCaT cells [1]; [15]): 20

COc1cc2ncnc(Nc3ccc(O)c(Cl)c3)c2cc1OCCCN1CCOCC1 [DF-GFT, 4-Defluoro-4-hydroxy gefitinib]
IC50 (HaCaT cells [1]; [13]): 1020 µM | IC50 (HaCaT cells [1]; [14]): 1100 µM | Phototoxicity classification according to OECD 432 Guide (HaCaT cells [1]): non-phototoxic; also recorded: negligible phototoxic activity | Photoirritant factor (PIF) (HaCaT cells [1]; [15]): ~1

COc1cc2ncnc(Nc3ccc(F)c(Cl)c3)c2cc1O [DMOR-GFT, O-Demorpholinopropyl gefitinib]
Fluorescence quantum yield (ΦF) [2]: 0.1 | Protein photooxidation (carbonyl content of HSA) [3]: significant oxidative effect towards HSA | Percentage of DNA damage (comet assay) (HaCaT cells [4]; UVA light 5 min (2 J/cm^2)): did not promote DNA damage | Percentage of DNA damage (comet assay) (HaCaT cells [4]; UVA light 10 min (4 J/cm^2)): around 45% | Emission (λmax) ([5]; in presence of HSA): 432 | Emission (λmax) [5, 16]: 448 | Emission (λmax) [5, 17]: 384 | Singlet oxygen quantum yield (Φ Δ) [6]: ≤ 0.1 | Caspase-3/7 activity (relative change) [7]: concentration dependent activation of caspase-3/7 | Photosensitized lipid peroxidation (TBARS content) [8]: remarkable enhancement in photosensitized lipid peroxidation comparable to the reference | Rate constant (kq) of triplet excited state quenching by DMBA [9]: 1.96 M^−1·s^−1 × 10^9 M^−1·s^−1 | IC50 (HaCaT cells [1]; [13]): 144 ± 6 µM | IC50 (HaCaT cells [1]; [14]): 3 ± 0.6 µM | Photoirritant factor (PIF) (HaCaT cells [1]; [15]): 48

Oc1cc2ncnc(Nc3ccc(F)c(Cl)c3)c2cc1OCCCN1CCOCC1 [DMT-GFT, O-Demethyl gefitinib]
Fluorescence quantum yield (ΦF) [2]: 0.04 | LDH release (HaCaT cells [10]): did not show any effect on the LDH release | Protein photooxidation (carbonyl content of HSA) [3]: did not exhibit any lipid or protein oxidative damage | Percentage of DNA damage (comet assay) (HaCaT cells [4]; UVA light 10 min (4 J/cm^2)): around 54% | Emission (λmax) [5, 16]: 450 | Emission (λmax) [5, 17]: 384 | Caspase-3/7 activity (relative change) [7]: caspase-3/7 activity was similar between the concentration of 2.5 µM and the concentration corresponding to IC50 | Photosensitized lipid peroxidation (TBARS content) [8]: neither GFT nor DMT-GFT showed detectable changes | IC50 (HaCaT cells [1]; [13]): 34 ± 3 µM | IC50 (HaCaT cells [1]; [14]): 5 ± 0.1 µM | Phototoxicity classification according to OECD 432 Guide (HaCaT cells [1]): can still be considered phototoxic | Photoirritant factor (PIF) (HaCaT cells [1]; [15]): 7

COc1cc2ncnc(Nc3ccc(F)c(Cl)c3)c2cc1OCCCN1CCOCC1 [GFT, Gefitinib hydrochloride, reference compound]
Fluorescence quantum yield (ΦF) [2]: 0.07 | LDH release (HaCaT cells [10]): small but significant percent of LDH-release | Protein photooxidation (carbonyl content of HSA) [11]: significant oxidative effect towards HSA | Percentage of DNA damage (comet assay) (HaCaT cells [4]; UVA light 5 min (2 J/cm^2)): around 72% | Singlet oxygen quantum yield (Φ Δ) [6]: ≤ 0.1

CCCCCCCCCCCCOS(=O)(=O)[O-].[Na+] [SDS, sodium dodecyl sulfate, reference compound]
Photoirritant factor (PIF) (HaCaT cells [1]): 1 | IC50 (HaCaT cells [1]; read-out: IC50 UVA light, HaCaT, neutral red uptake, UVA 5 J/cm^2, 1 h incubation with compound): 136 ± 23 µM | IC50 (HaCaT cells [1]; read-out: IC50 dark, HaCaT, neutral red uptake, kept in dark, 1 h incubation with compound): 133 ± 31 µM

c1ccc2cc3ccccc3cc2c1 [anthracene]
Fluorescence quantum yield (ΦF) [12]: 0.27
